Data reported in patent US7763601B2, “Prevention and treatment of obesity” (N-Gene Research Laboratories, Inc., priority 2006, dated 2010).

What was measured:
female NMRI mice = test: Body weight gain induced by olanzapine or clozapine in mice, 15 days; format: in vivo, mouse; details: agent alone p.o. for 15 days (olanzapine 0.5, clozapine 1, BGP-15 10 mg/kg); between first and 15th day; control 2.98 g
Procedure: Groups of female NMRI mice were treated with vehicle (control group) and the agents to be tested for 15 days, perorally. Each group consisted of 10 animals fed with normal laboratory chow and tap water ad libitum. Treatments were performed between 5 and 6 pm, shortly before the dark phase, the primary feeding period of the day. Olanzapine was administered in a dose of 0.5 mg/kg, while clozapine was administered in a dose of 1 mg/kg to induce body weight gain.

female Wistar rats [1] = test: Body weight gain induced by olanzapine in rats, 28 days; format: in vivo, rat; details: for Body weight (average in the group): day 28, control 255 g
Procedure: Groups of female Wistar rats were treated with vehicle (control group) and the agents to be tested for 28 days. Each group consisted of 6 animals fed with normal laboratory chow and tap water ad libitum. The agents to be tested were administered twice daily, at 8 h and 18 h, perorally. The antipsychotic olanzapine was administered in a dose of 1 mg/kg to induce body weight gain.

female Wistar rats [2] = test: Body weight gain induced by risperidone in rats, 21 days; format: in vivo, rat; details: for Body weight gain: day 21, control 27 g
Procedure: The experiments were carried out in eight-week-old female Wistar rats. Each test group consisted of 10 animals fed with normal laboratory chow and tap water ad libitum. The animals were treated with vehicle (control group) and the compounds to be tested for 21 days. In this experimental system, the antipsychotic risperidone was injected subcutaneously once daily in doses of 0.005 and 0.05 mg/kg, respectively to induce body weight gain.

[3] = agent alone, p.o. twice daily for 28 days (olanzapine 1, BGP-15 10, metformin 100, rosiglitazone 3 mg/kg), starting weight 171 g
[4] = agent together with olanzapine 1 mg/kg, p.o. twice daily for 28 days (BGP-15 10, metformin 100, rosiglitazone 3 mg/kg), olanzapine alone 330 g

Structure (SMILES) | Body weight gain (average in the group) (female NMRI mice) [g] | effect on average weight relative to the control group (female Wistar rats [1]; agent alone, 28 days) | Body weight (average in the group) (female Wistar rats [1]; [3]) [g] | Body weight (average in the group) (female Wistar rats [1]; [4]) [g] | further results
CN1CCN(C2=Nc3cc(Cl)ccc3Nc3ccccc32)CC1 [Clozapine, 8-chloro-11-(4-methyl-1-piperazinyl)-5H-dibenzo[b,e][1,4]diazepine] | 4.11 |  |  |  | 
CN(C)C(=N)N=C(N)N [Metformin, metformin] |  | somewhat higher average weight relative to the control group | 266 | 331 | effect on the weight gain induced by olanzapine (female Wistar rats [1]; agent together with olanzapine 1 mg/kg, 28 days): did not reduce
Cc1cc2c(s1)Nc1ccccc1N=C2N1CCN(C)CC1 [Olanzapine, 2-methyl-4-(4-methyl-1-piperazinyl)-10H-thieno[2,3-b][1,5]-benzodiazepine] | 3.5 | high average weight relative to the control group | 330 |  | 
Cc1nc2n(c(=O)c1CCN1CCC(c3noc4cc(F)ccc34)CC1)CCCC2 [Risperidone, risperidone] |  |  |  |  | effect on body weight gain relative to the control group (female Wistar rats [2]; agent alone, 21 days): increased body weight gain relative to the control group; Body weight gain (female Wistar rats [2]; risperidone alone 0.005 mg/kg s.c. once daily): 39.7 g; Body weight gain (female Wistar rats [2]; risperidone alone 0.05 mg/kg s.c. once daily): 41 g
CN(CCOc1ccc(CC2SC(=O)NC2=O)cc1)c1ccccn1 (stereo not shown) [Rosiglitazone, rosiglitazone] |  |  | 284 | 359 | 
